{"source": "paper PMC3927924", "about": "“Bisubstrate UDP–peptide conjugates as human O-GlcNAc transferase inhibitors” (Biochemical Journal, 2014)", "molecules": {"B1": {"name": "O-GlcNAc transferase (hOGT) 312-1031 (protein)", "chain": "AEDCYNTALRLCPTHADSLNNLANIKREQGNIEEAVRLYRKALEVFPEFAAAHSNLASVLQQQGKLQEALMHYKEAIRISPTFADAYSNMGNTLKEMQDVQGALQCYTRAIQINPAFADAHSNLASIHKDSGNIPEAIASYRTALKLKPDFPDAYCNLAHCLQIVCDWTDYDERMKKLVSIVADQLEKNRLPSVHPHHSMLYPLSHGFRKAIAERHGNLCLDKINVLHKPPYEHPKDLKLSDGRLRVGYVSSDFGNHPTSHLMQSIPGMHNPDKFEVFCYALSPDDGTNFRVKVMAEANHFIDLSQIPCNGKAADRIHQDGIHILVNMNGYTKGARNELFALRPAPIQAMWLGYPGTSGALFMDYIITDQETSPAEVAEQYSEKLAYMPHTFFIGDHANMFPHLKKKAVIDFKSNGHIYDNRIVLNGIDLKAFLDSLPDVKIVKMKCPDGGDNADSSNTALNMPVIPMNTIAEAVIEMINRGQIQITINGFSISNGLATTQINNKAATGEEVPRTIIVTTRSQYGLPEDAIVYCNFNQLYKIDPSTLQMWANILKRVPNSVLWLLRFPAVGEPNIQQYAQNMGLPQNRIIFSPVAPKEEHVRRGQLADVCLDTPLCNGHTTGMDVLWAGTPMVTMPGETLASRVAASQLTCLGCLELIAKNRQEYEDIAVKLGTDLEYLKKVRGKVWKQRISSPLFNTKQYTMELERLYLQMWEHYAAGN"}}, "key": {"[1]": {"target": "T1, SmNodC (Sinorhizobium meliloti NodC) (Rhizobium meliloti, UniProt P04341)", "T1 sequence (P04341 1-426)": "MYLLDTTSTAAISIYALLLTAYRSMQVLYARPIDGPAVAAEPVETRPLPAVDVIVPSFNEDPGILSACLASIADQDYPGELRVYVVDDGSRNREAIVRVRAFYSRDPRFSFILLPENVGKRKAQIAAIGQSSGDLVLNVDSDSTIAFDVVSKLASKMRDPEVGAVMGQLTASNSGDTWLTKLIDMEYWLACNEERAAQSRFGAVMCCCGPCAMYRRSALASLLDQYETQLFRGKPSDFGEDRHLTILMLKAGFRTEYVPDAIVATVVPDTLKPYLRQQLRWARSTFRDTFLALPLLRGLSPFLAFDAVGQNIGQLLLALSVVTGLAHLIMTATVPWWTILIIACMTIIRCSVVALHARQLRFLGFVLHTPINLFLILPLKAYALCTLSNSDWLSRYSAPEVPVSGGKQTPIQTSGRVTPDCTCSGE", "test": "Coupled fluorigenic in vitro assay of GlcNAc transferase SmNodC", "format": "biochemical", "conditions": "1 mM–0.46 μM compound", "description": "Figure S4 The bacterial GlcNAc transferase NodC is not inhibited by goblin1 7.27–7.20 (m, 4H), 7.16 (t, J 8.2 Hz, 4H), 6.31 (d, J 8.2 Hz, 1H), Sm NodC, a GlcNAc transferase from Sinorhizobium meliloti that utilizes UDP-GlcNAc to 5.11–4.95 (m, 4H), 4.61 (dt, J 8.2, 3.0 Hz, 1H), 4.41 (dd, J 10.5, synthesize chito-oligosaccharides, was assayed to investigate the selectivity of goblin1. A 7.2 Hz, 1H), 4.31 (dd, J 10.5, 7.5 Hz, 1H), 4.24–4.14 (m, 2H), coupled ﬂuorigenic in vitro assay was performed in the presence of 1 mM–0.46 μM of goblin1, 4.10 (dq, J 11.2, 5.9 Hz, 1H), 3.92 (dd, J 9.5, 3.3 Hz, 1H), 3.79 12, 17 and UDP. The assay (details available from D. M. F. v. A. on request) relies on (dd, J 9.5, 2.9 Hz, 1H), 3.58 (dt, J 10.4, 5.4 Hz, 1H), 3.47 (dt, the elongation of 4-methylumbellifer yl-N -acetyl-β 1,4-glucosamine by the GlcNAc transferase J 9.8, 6.0 Hz, 1H), 2.37 (s, 3H), 2.35 (s, 3H), 1.8 (m, 1H), 1.7 Sm NodC, and subsequent hydrolysis of the reaction products by Aspergillus fumigatus chitinase (m, 1H), 1.60 (m, 2H); 13 C NMR (126 MHz, [2 H]chloroform) […]\n4-parameter IC50 equation in the GraphPad Prism program (http://www.graphpad.com). […]\nBeamline, wavelength (A˚) ID 23-1, 0.981ture was stirred for 16 h at room temperature. The reaction Space group P 321was quenched by the addition of methanol, stirred for 30 min Cell dimensions˚) 273.7, 142.6and concentrated. The residue was partitioned between ethyl […]\nResolution (A acetate and 10 % aqueous citric acid solution and the layers R merge 0.136 (0.505)were separated. The organic layer was washed successively with I /σ I 9.2 (3.1)water and a mixture of saturated NaHCO3 solution and brine.\nCompleteness (%) 99.2 (99.7)The aqueous layer was additionally extracted with the same Redundancy 4.3 (4.5)portion of ethyl acetate. The combined organic layer was dried and Reﬁnement ˚) 30–3.15concentrated. The residue was puriﬁed by ﬂash chromatography […]"}, "[2]": {"target": "T2, hOGT-(312–1031) (Homo sapiens, UniProt O15294)", "T2 construct": "Reactions contained 50 nM hOGT-(312–1031) in 50 mM Tris/HCl; made in house", "T2 sequence (O15294 312-1031 isoform O15294-3)": "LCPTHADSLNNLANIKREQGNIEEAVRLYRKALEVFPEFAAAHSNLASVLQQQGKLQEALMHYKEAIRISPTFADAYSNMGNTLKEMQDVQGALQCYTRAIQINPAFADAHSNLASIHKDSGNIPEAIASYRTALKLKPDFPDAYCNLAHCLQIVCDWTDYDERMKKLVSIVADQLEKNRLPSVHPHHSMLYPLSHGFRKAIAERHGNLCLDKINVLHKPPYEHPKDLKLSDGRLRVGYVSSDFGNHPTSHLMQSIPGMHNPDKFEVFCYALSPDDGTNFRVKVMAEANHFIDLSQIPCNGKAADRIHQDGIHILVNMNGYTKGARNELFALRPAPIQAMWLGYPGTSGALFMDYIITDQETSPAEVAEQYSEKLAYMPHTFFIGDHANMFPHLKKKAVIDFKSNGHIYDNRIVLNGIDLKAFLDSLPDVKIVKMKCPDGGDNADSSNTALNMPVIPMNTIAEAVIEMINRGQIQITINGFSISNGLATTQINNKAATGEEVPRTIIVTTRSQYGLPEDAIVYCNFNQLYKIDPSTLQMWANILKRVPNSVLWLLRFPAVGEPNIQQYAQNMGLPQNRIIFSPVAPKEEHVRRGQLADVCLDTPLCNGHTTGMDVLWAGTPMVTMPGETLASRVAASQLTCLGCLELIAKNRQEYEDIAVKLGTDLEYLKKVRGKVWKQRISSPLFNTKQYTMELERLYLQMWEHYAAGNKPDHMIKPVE", "test": "In vitro glycosylation of peptide substrate KKENSPAVTPVSTA by hOGT, fluorimetric UDP detection", "format": "biochemical", "conditions": "10 μM peptide KKENSPAVTPVSTA, 3.2 μM UDP-GlcNAc, 50 nM hOGT", "description": "Reactions contained 50 nM hOGT-(312–1031) in 50 mM Tris/HCl (pH 7.5), 0.1 mg/ml BSA, 10 μM sodium dithionate and 10 μM peptide (KKENSPAVTPVSTA) and various amounts of inhibitors in a total volume of 100 μl. Reaction mixtures were pre-incubated for 15 min and started by addition of UDP-GlcNAc to a final concentration of 3.2 μM. After 30 min of incubation at 22°C, assays were stopped by adding 200 μl of 25 mM Hepes (pH 7.4), 10 mM NaCl, 50% (v/v) methanol and 15 μM fluorophore, a UDP-sensitive xanthene-based Zn(II) complex prepared as described in [19, 20]. Product formation was detected fluorimetrically on a Gemini EM fluorescence microplate reader (Molecular Devices) at excitation and emission wavelengths of 485 nm and 530 nm respectively. A non-linear regression curve fit was performed with Prism."}, "[3]": {"target": "T2, hOGT-(312–1031)", "test": "In vitro glycosylation of hTAB1 by hOGT, Western blot with TAB1-gSer395 antibody and densitometry", "format": "biochemical", "conditions": "1 μM TAB1-(7–402), 10 μM UDP-GlcNAc, Western blot densitometric quantification; read-out: IC50, O-GlcNAcylation of substrate protein TAB1", "description": "Reaction mixtures containing 1 μM TAB1-(7–402) protein [TAB1 is TGF (transforming growth factor)-β-activated kinase-binding protein 1] (purified as described previously), 0.125 μM hOGT-(312–1031) and 10 μM UDP-GlcNAc in a buffer of 50 mM Tris/HCl (pH 7.5) and 1 mM DTT were incubated at 37°C for 90 min, separated by SDS/PAGE (10% gels) and transferred on to nitrocellulose membranes. Membranes were probed with a TAB1-gSer^395 (O-GlcNAcylated Ser^395) O-GlcNAc site-specific antibody, followed by an IR800-labelled secondary antibody and analysed using a LI-COR Odyssey scanner and associated quantification software. Data were fitted to a four-parameter equation for dose-dependent inhibition using GraphPad Prism 5.0."}, "[4]": {"target": "T2, hOGT-(312–1031)", "test": "Biolayer interferometry binding to immobilized biotinylated hOGT-(312-1031)", "conditions": "25°C", "description": "Measurements were made on a ForteBio Octet RED384 instrument at 25°C. Biotinylated hOGT-(312–1031) was prepared at 25 μg/ml in TBS (25 mM Tris/HCl, pH 7.5, and 150 mM NaCl) buffer containing 1 mM DTT and immobilized on superstreptavidin biosensors. Free streptavidin sites were blocked by incubation with biocytin. A parallel set of superstreptavidin biosensors were prepared with biotinylated streptavidin to act as a control. The assay was carried out in 384-well plates with a sample volume of 100 μl. Inhibitor solutions were prepared from solid stocks and dissolved in assay buffer and a concentration series of 3-fold dilutions from a top concentration of 100 μM was created. Cycles for analysis involved obtaining a 30 s baseline followed by a 60 s association step and a 120 s dissociation step. The assay was repeated with the reference biosensors to correct for non-specific interactions and the entire assay was repeated in triplicate for both compounds. Data were processed and kinetic parameters were calculated using ForteBio software."}, "[5]": {"system": "hOGT", "set-up": "method as in PMID 23103942", "conditions": "cited from earlier work"}, "[6]": {"target": "hOGT", "set-up": "method as in PMID 21258330", "conditions": "read-out: Ki for hOGT in vitro; cited from earlier work"}, "[7]": {"target": "T3, goblin1 (UDP-peptide conjugate 14a)", "T3 chain": "VTPVS([C3 linker-UDP])TA-NH2", "test": "biolayer interferometry"}, "[8]": {"target": "T4, goblin2 (UDP-peptide conjugate 14b)", "T4 chain": "VTPVS([C4 linker-UDP])TA-NH2", "test": "biolayer interferometry"}}, "note": "“Also recorded” adds a separate entry of the source. Where a SMILES comes first, the peptide text is derived from it. Where no end group is shown, it is not given here. Side-chain parts run from the residue outwards. The star is where a group is joined. Propyl(3-UDP) = O=c1ccn([C@@H]2O[C@H](COP(=O)(O)OP(=O)(O)OCCC*)[C@@H](O)[C@H]2O)c(=O)[nH]1; X1 = O=c1ccn([C@@H]2O[C@H](COP(=O)(O)OP(=O)(O)OCCCC*)[C@@H](O)[C@H]2O)c(=O)[nH]1; C3 linker = three-carbon linker from the acceptor serine to UDP; C4 linker = four-carbon linker from the acceptor serine to UDP"}
{"molecule": "COCCCOP(=O)(O)OP(=O)(O)OC[C@H]1O[C@@H](n2ccc(=O)[nH]c2=O)[C@H](O)[C@@H]1O", "note": "[compound 17]", "values": [{"measurement": "SmNodC inhibition", "setting": "[1]", "result": "not inhibited"}, {"measurement": "IC50", "setting": "[2]", "result": 300, "unit": "µM"}]}
{"molecule": "CC(=O)N[C@H](C(=O)N[C@H](C(=O)N1CCC[C@H]1C(=O)N[C@H](C(=O)N[C@@H](COCCCOP(=O)(O)OP(=O)(O)OC[C@H]1O[C@@H](n2ccc(=O)[nH]c2=O)[C@H](O)[C@@H]1O)C(=O)N[C@H](C(=O)N[C@@H](C)C(N)=O)[C@@H](C)O)C(C)C)[C@@H](C)O)C(C)C", "note": "[goblin1] (Ac-VTPVS(Propyl(3-UDP))TA-NH2)", "values": [{"measurement": "SmNodC inhibition", "setting": "[1]", "result": "not an inhibitor; also recorded: not inhibited"}, {"measurement": "IC50", "setting": "[2]", "result": 18, "unit": "µM"}, {"measurement": "IC50", "setting": "[3]", "result": 8, "unit": "µM"}, {"measurement": "Kd", "setting": "[4]", "result": 7.9, "unit": "µM"}]}
{"molecule": "CC(=O)N[C@H]1[C@@H](OP(=O)(O)OP(=O)(O)OC[C@H]2O[C@@H](n3ccc(=O)[nH]c3=O)[C@H](O)[C@@H]2O)O[C@H](CO)[C@@H](O)[C@@H]1O", "note": "[UDP-GlcNAc]", "values": [{"measurement": "fold higher Kd than for UDP", "setting": "[5]; biophysical determination", "result": 30, "unit": "fold"}]}
{"molecule": "O=c1ccn([C@@H]2O[C@H](COP(=O)(O)OP(=O)(O)O)[C@@H](O)[C@H]2O)c(=O)[nH]1", "note": "[UDP, reference compound]", "values": [{"measurement": "IC50", "setting": "[1]", "result": 90, "unit": "µM"}, {"measurement": "Kd", "setting": "[5]", "result": 0.5, "unit": "µM"}]}
{"molecule": "CC(=O)N[C@@H]1[C@@H](O)[C@H](O)[C@@H](CO)S[C@@H]1OP(=O)(O)OP(=O)(O)OC[C@H]1O[C@@H](n2ccc(=O)[nH]c2=O)[C@H](O)[C@@H]1O", "note": "[UDP-5S-GlcNAc]", "values": [{"measurement": "Ki", "setting": "[6]", "result": 8, "unit": "µM"}]}
{"molecule": "CC(=O)N[C@H](C(=O)N[C@H](C(=O)N1CCC[C@H]1C(=O)N[C@H](C(=O)N[C@@H](COCCCCOP(=O)(O)OP(=O)(O)OC[C@H]1O[C@@H](n2ccc(=O)[nH]c2=O)[C@H](O)[C@@H]1O)C(=O)N[C@H](C(=O)N[C@@H](C)C(N)=O)[C@@H](C)O)C(C)C)[C@@H](C)O)C(C)C", "note": "[goblin2] (Ac-VTPVS(X1)TA-NH2)", "values": [{"measurement": "IC50", "setting": "[2]", "result": 40, "unit": "µM"}, {"measurement": "Kd", "setting": "[4]", "result": 4.9, "unit": "µM"}]}
{"molecule": "B1", "values": [{"measurement": "Kd", "setting": "[7]", "result": 7.9, "unit": "µM"}, {"measurement": "Kd", "setting": "[8]", "result": 4.9, "unit": "µM"}]}
